Values quoted from earlier work as cited in patent publication EP0713864A1, “Substituted benzoylguanidines, process for their preparation, their use as medicament of diagnostic agent as well as medicaments containing them” (HOECHST AKTIENGESELLSCHAFT, priority 1994, dated 1996).

Tested on: Kammerflimmern
Conditions: isolated rat hearts; Eur. Heart J. 9 (suppl.1): 167 (1988)

| Compound | Unterdrückung eines künstlich ausgelösten Kammerflimmerns |
| --- | --- |
| N=C(N)NC(=O)c1nc(Cl)c(N)nc1N [Amilorid] | völlig unterdrückt |
| CCN(c1nc(N)c(C(=O)NC(=N)N)nc1Cl)C(C)C [Ethylisopropylamilorid] | Noch potenter als Amilorid |
